Measured values taken from BindingDB's records for doi:10.1021/jm050205o (Abbott Laboratories, 2005).
pIC50: −log10 of the molar value.

Target: T1, Glucocorticoid receptor (Homo sapiens, UniProt P04150)
T1 sequence (P04150 whole entry): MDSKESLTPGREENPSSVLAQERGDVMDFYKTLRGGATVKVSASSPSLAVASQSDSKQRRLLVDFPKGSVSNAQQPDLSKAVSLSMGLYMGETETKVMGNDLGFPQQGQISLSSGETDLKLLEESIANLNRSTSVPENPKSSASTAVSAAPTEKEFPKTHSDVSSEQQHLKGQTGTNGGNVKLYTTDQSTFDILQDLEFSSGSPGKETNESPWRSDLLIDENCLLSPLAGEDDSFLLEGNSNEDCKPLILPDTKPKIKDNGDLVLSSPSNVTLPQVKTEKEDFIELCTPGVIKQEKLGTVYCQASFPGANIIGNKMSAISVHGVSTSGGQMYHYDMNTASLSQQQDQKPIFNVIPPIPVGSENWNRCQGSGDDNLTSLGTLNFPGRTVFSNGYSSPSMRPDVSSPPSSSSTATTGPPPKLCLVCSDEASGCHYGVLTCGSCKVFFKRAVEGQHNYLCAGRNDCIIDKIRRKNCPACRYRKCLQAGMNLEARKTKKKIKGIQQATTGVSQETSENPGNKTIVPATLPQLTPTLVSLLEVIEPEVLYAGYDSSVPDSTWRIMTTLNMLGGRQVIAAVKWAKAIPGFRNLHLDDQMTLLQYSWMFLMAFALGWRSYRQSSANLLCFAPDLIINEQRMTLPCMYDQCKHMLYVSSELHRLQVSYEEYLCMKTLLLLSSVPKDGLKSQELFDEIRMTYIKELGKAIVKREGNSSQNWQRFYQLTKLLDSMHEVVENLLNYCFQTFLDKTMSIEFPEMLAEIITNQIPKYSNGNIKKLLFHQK
Test: GR Binding Assay and GRAF Assay
Conditions: pH 8; 4 °C

| SMILES | pIC50 |
| --- | --- |
| Cc1c(NS(C)(=O)=O)cccc1N(Cc1ccc(Oc2ccc(Br)c(OCC(=O)O)c2)cc1)Cc1ccc(F)cc1F [2-{2-bromo-5-[4-({[(2,4-difluorophenyl)methyl](3-methanesulfonamido-2-methylphenyl)amino}methyl)phenoxy]phenoxy}acetic acid] | 6.48 |
| Cc1c(NS(C)(=O)=O)cccc1N(Cc1ccc(Oc2ccc(Cl)c(OCC(=O)O)c2)cc1)Cc1ccc(F)cc1F [2-{2-chloro-5-[4-({[(2,4-difluorophenyl)methyl](3-methanesulfonamido-2-methylphenyl)amino}methyl)phenoxy]phenoxy}acetic acid] | 6.30 |
| Cc1c(NS(C)(=O)=O)cccc1N(Cc1ccc(Oc2ccc(F)c(OCC(=O)O)c2)cc1)Cc1ccc(F)cc1F [2-{5-[4-({[(2,4-difluorophenyl)methyl](3-methanesulfonamido-2-methylphenyl)amino}methyl)phenoxy]-2-fluorophenoxy}acetic acid] | 6.36 |
| CC#C[C@]1(O)CC[C@H]2[C@@H]3CCC4=CC(=O)CC[C@]4(Cc4ccc(C)cc4)C3=CC[C@@]21C [(2R,10S,11S,14S,15S)-14-hydroxy-15-methyl-2-[(4-methylphenyl)methyl]-14-(prop-1-yn-1-yl)tetracyclo[8.7.0.0^{2,7}.0^{11,15}]heptadeca-1(17),6-dien-5-one] | 7.37 |
